Values quoted from earlier work, collected in US20250381197A1, “Regimen for Treating Amyotrophic Lateral Sclerosis Having Onset 24 Months Prior to Treatment” (Woolsey Pharmaceuticals, Inc., priority 2022, published 2025).
Read-outs that look alike come from different tables or passages of the source.

Legend:
[1] = test system: ALS patients; conditions: 6-month study; ALS onset between 3 and 36 months; 30 mg twice a day; cited from earlier work
[2] = test system: human ALS patients; conditions: 30 mg intravenously twice daily over 20 consecutive working days; 3 patients; cited from earlier work
[3] = test system: ALS patients; conditions: cited from earlier work
[4] = 1-hydroxy (M3) metabolite; cited from earlier work

In the case of `Cl.O=S(=O)(c1cccc2cnccc12)N1CCCNCC1` [Fasudil, Hexahydro-1-(5-isoquinolinesulfonyl)-1H-1,4-diazepine monohydrochloride hemihydrate], the disease modification [1] is listed as “did not result in any disease modification” and the “outcome of compassionate use” value [2] is listed as “no conclusive results beyond safety”.
In the case of `CC1=NN(c2ccccc2)C(=O)C1` [edaravone], the primary endpoint ([3]; enrollment narrowed to patients diagnosed two years or less (Tanaka 2016a)) is listed as “met the primary endpoint”, the primary endpoint ([3]; enrollment of three years or less (Abe 2017)) is listed as “did not meet the primary endpoint” and the “treatment effect between placebo and edaravone” value ([3]; severe ALS patients, disease onset of less than three years (Tanaka 2016b)) is listed as “failed to demonstrate any treatment effect”.
In the case of `O=S(=O)(c1cccc2c(O)nccc12)N1CCCNCC1` [M3], the half-life [4] is listed as “about 8 hours”.
